The values below come from ChEMBL document CHEMBL3507680, “University of Dundee, Gates Library screen for HepG2 cell viability”.

Each structure is given as a SMILES string.

The data set can be described thus: Human HepG2 cell viability assay in 384 well format. The arrangement: dose 125 nL, time 70.5 hour; cytotoxicity at 70.5 h: concentration not given beside the values. The conditions noted are these: HepG2 cells, read-out: Inhibition. The data set is classed as toxicity, cell-based.
In the case of `Cc1nnc2n1CC(CNCc1nc(-c3ccsc3)no1)CC2` (centres undefined), the cytotoxicity at 70.5 h was -14.6%.
Next, `CN(CC(=O)NC1(C#N)CCCC1)C1CCCN(c2cccnn2)C1` (centres undefined): -1.63%; `CCn1cc(C(=O)N(C)Cc2c(F)cccc2Cl)cn1`: -2.9%; `O=C(NCCN1CCNC1=O)c1cc(-c2ccc(O)cc2)n[nH]1`: -10.9%.
In the case of `Cc1nn(C)c(C)c1CC(=O)NCc1ccnc(N2CCOCC2)c1`, the cytotoxicity at 70.5 h was -6.63%.
Next, `CNS(=O)(=O)c1ccc(C(=O)NCc2ccnc(OC)c2)cc1`: -10%; `CCn1ncnc1C(C)NC(=O)C1CCN(C(=O)COC)CC1` (centres undefined): -8.09%; `CC1CCCN(c2nccn3c(=O)[nH]nc23)C1` (centres undefined): -7.92%.
In the case of `CCOCC(O)CNc1cncc(Br)c1` (centres undefined), the cytotoxicity at 70.5 h is -1.77%.
On to `Cc1nc(CN(C)C2CCN(CC3CCC3)C2)no1` (centres undefined), for which the cytotoxicity at 70.5 h was -4.98%.
For `Cc1ncsc1CCN(C)C(=O)CN1CCOc2ccccc2C1`, the cytotoxicity at 70.5 h was determined as 0.856%.
Next, `Cc1cc(C(=O)N2CCOC(c3nc(C(C)C)n[nH]3)C2)no1` (centres undefined): -11.9%.
The value for `CC(C)C(=O)NS(=O)(=O)c1ccc(C#N)cc1C(F)(F)F` was -2.54%; that for `COCCN1C[C@@H](C)[C@@]2(COCCN(C(=O)c3cccs3)C2)C1` was 1.58%; that for `CC(C)(C)C(=O)N1C[C@H](c2ccsc2)[C@H]2CN(C3CCCC3)CC[C@H]21` was -4.45%.
The value for `CCNC(=O)[C@@H]1C[C@@H](NC(=O)c2ccc(C)s2)CN1Cc1ccccn1` was -2.7%; that for `Cc1cc(Oc2ccccc2)nc(C2CCN(CCO)CC2)n1` was -6.09%; that for `CC(C)(C)n1nc(C(=O)NC2CCN(CC(N)=O)CC2)cc1C1CC1` was -11.7%.
With `N[C@@H](Cc1ccccc1)c1nnc(S(=O)(=O)Cc2ccccc2)o1`, the cytotoxicity at 70.5 h was 15.6%.
Next, `O=C(c1cccc2ncccc12)N1CCCN(c2cccnn2)CC1`: -11.1%.
Next, `Cc1ccc(N2CC[C@H]3O[C@@H](C(=O)NCc4ccco4)CC[C@H]32)nn1`: -4.81%; `COc1ccc(OC2CCN(C(=O)CCc3n[nH]c(C)n3)CC2)cc1`: 22.6%; `FC(F)(F)Cn1cc(NCc2cscn2)cn1`: -5.23%.
The value for `CCOCCC(=O)N1CCCN(c2ccccc2C)CC1` was -4.5%.
Take `Cn1cc(CCC(=O)N2CCCN(c3ncccc3C#N)CC2)cn1`: the cytotoxicity at 70.5 h was 35.5%.
The value for `CC(C)c1nnc2n1CCN(Cc1cc(Cl)c3c(c1)OCO3)C2` was -1.27%; that for `Cc1cc2n(n1)[C@@H](C(F)(F)F)C[C@@H](C1CCN(C(=O)C(C)C)CC1)N2` was -1.78%; that for `Cn1ncc2c1CCCN(C(=O)C1CCCC1)C2` was -0.407%.
The value for `COc1ccc(CCN2CCOC(Cn3nc(C)nc3C)C2)cc1` (centres undefined) was -5.86%; that for `CC(C)(N)C(=O)N1CCC(c2nccnc2Oc2ccccc2F)CC1` was 7.72%; that for `Cc1cc(C)n(CC(=O)N2CCCCC2CCc2cccs2)c(=O)n1` (centres undefined) was -13.4%.
Next, `CCn1nccc1CN(C)c1[nH]cnc2nc(C)nc1-2`: -5.53%; `CC(Cc1c(F)cccc1F)NC(=O)NCc1ncnn1C` (centres undefined): -2.54%; `O=S(=O)(NCCN1CC=CC1)c1cncc(Cl)c1`: -0.531%.
With `COc1cc(C2(C(=O)N3CCCC(n4cncn4)C3)CC2)ccc1C` (centres undefined), the cytotoxicity at 70.5 h was -7.1%.
For the compound `CC(C)COC1CC2(CCN(Cc3nccn3C)CC2)C1`, the cytotoxicity at 70.5 h was 6.92%.
The value for `NC(=O)c1cccc(CN2CCOC(Cn3cccn3)C2)c1` (centres undefined) was 8.52%.
For the compound `COc1cccc2c1CCC2NC(=O)NCc1csc(N(C)C)n1` (centres undefined), the cytotoxicity at 70.5 h was found to be 9.68%.
Next, `CN(C)CCNC(=O)c1cc2c(s1)CCN2S(C)(=O)=O`: -9.71%; `Cc1ccc(C(=O)N2CCN(CC(C)O)CC2)cc1S(C)(=O)=O` (centres undefined): -6.11%; `Clc1ccc(CN2CCCC(Cn3cncn3)C2)c2ncccc12` (centres undefined): -8.25%.
In the case of `CCN1CCN(c2ccccc2NC(=O)N(C)C2CCSC2)CC1` (centres undefined), the cytotoxicity at 70.5 h was -13.8%.
Next, `COc1cccc(CC(C)NC(=O)NCCc2cccnc2)c1` (centres undefined): -8.55%; `CC(=O)c1ccc(N2CCN(C(=O)NC(C)c3ccc(C)o3)CC2)cc1` (centres undefined): -3.78%.
Next, `CCn1ccnc1CN1CCN(c2ccc3nnc(C)n3n2)CC1`: -8.35%.
As for `O=C(c1c2c(NCC3CC3)ncnc2n2ccccc12)N1CCCC1`, the cytotoxicity at 70.5 h stood at 0.851%.
Consider `CCn1ccc(-c2cc(C(=O)O)n3ncc(Br)c3n2)n1`, for which the cytotoxicity at 70.5 h was -11.6%.
Next, `CS(=O)(=O)CCN(CCCO)C1CCc2ccccc21` (centres undefined): -98.4%; `Cn1cc(C2CCCN2C(=O)CCCc2nc3ccccc3[nH]2)cn1` (centres undefined): 4.56%.
The value for `COCc1nc(CNC2CCSCC2)no1` was -8.13%; that for `Cc1ccc(N2CCC(NC(C)c3ccc(C)o3)CC2)nc1` (centres undefined) was -4.68%; that for `Cc1nsc(NC(=O)NC2CCOCC2)n1` was 13.1%.
The value for `COc1ccc(CNC(=O)N2CCN(CC(O)C3CC3)CC2)cc1` (centres undefined) was -3%; that for `NC(=O)CN1CCC(NC(=O)COCCOc2ccccc2)CC1` was -4.83%; that for `O=C(c1ccc2occc2c1)N1CCC(C(=O)O)(n2cccn2)CC1` was -4.27%.
For `Cc1cccnc1CNCC1(O)CCCN(CC(C)(C)C)C1=O` (centres undefined), the cytotoxicity at 70.5 h is -4.51%.
The value for `Fc1cnc(N2C[C@H]3CCC[C@@]3(COc3ccccn3)C2)nc1` was -7.17%; that for `CCCS(=O)(=O)N1CCOC2(CCCN(c3ccc(C)nn3)C2)C1` (centres undefined) was -6.62%; that for `Cc1n[nH]c(C)c1C1CCCN1C(=O)NC(C)(C)C` (centres undefined) was 4.46%.
Next, `COCCN1C[C@H]2[C@@H](C1)N(C(=O)CCc1ccccc1)CC[C@H]2OC`: -10.6%.
The value for `CCC1CN(Cc2cccc(C(=O)N(C)C)c2)CCN1CCOC` (centres undefined) was -8.03%.
For `Cc1nn(C)c(Cl)c1C1CCCN1Cc1ccc(C(N)=O)cc1` (centres undefined), the cytotoxicity at 70.5 h was -7.15%.
Next, `CC(=O)c1c(C)nn(CC(=O)N2CCCC2c2ccc(C(N)=O)s2)c1C` (centres undefined): -2.76%.
The value for `Cc1ccc(CN2CCN(CC(=O)Nc3ccc4nsnc4c3)CC2)o1` was -5.71%; that for `O=C(CC1CC1)NCc1cn2c(n1)CN(C(=O)c1cccnc1)CC2` was -7.69%; that for `CC(C)OC(=O)N1CCC(Cc2ccc(C(=O)O)cc2)C1` (centres undefined) was 27.1%.
Next, `CC(=O)c1cnc(N(C)Cc2cnc3ccccc3n2)nc1C`: -5.98%.
Consider `O=C(N[C@@H]1CCN(Cc2cc3ccccc3s2)C[C@H]1O)c1cccnc1`, for which the cytotoxicity at 70.5 h was -3.4%.
Next, `CC(C)CCOCCNC(=O)Nc1cc(C(F)(F)F)c[nH]c1=O`: -2.4%; `CN(C)c1cc2c(nn1)CCN(C(=O)Cc1ccc3c(c1)CCO3)C2`: -5.69%; `Cc1nnc(CN2CCOC(c3ccc(Cl)c(Cl)c3)C2)o1` (centres undefined): -3.49%.
The value for `Cc1nccn1-c1ccc(CNS(=O)(=O)N2CCCC(C)C2)cn1` (centres undefined) was -4.59%; that for `O=C(NCC(O)c1cccc(F)c1)c1cccnc1O` (centres undefined) was -5.45%; that for `O=C(O)CN1CCC(C(F)(F)F)CC1` was -2.76%.
The value for `COc1ccc(CN(C)CC2(O)CCN(C(=O)c3cccn3C)C2)cc1` (centres undefined) was 36.1%.
For the compound `CCOC(=O)C(C)Nc1ccc(CCN2CCOCC2)cc1` (centres undefined), the cytotoxicity at 70.5 h is -16.3%.
Next, `CCCn1nc2c(cc1=O)CN(Cc1nc(-c3ccco3)no1)CC2`: -1.15%; `COc1cccc(OC)c1CN1CC(=O)N(c2ccc(C)cc2)CC1C` (centres undefined): 1.44%; `O=C([C@H]1CC[C@@H]2[C@@H](CCN2Cc2nccs2)O1)N1CCOCC1`: -5.21%.
Next, `O=C(CC1CSc2nccc(=O)n21)NCc1cc(-c2ccco2)on1` (centres undefined): -11.9%; `O=C(Nc1ccccc1)N1CCn2nnc(COc3cccnc3)c2C1`: 1.76%.
Next, `Cn1nc(C2CCCN(Cc3ccccc3)C2)c2nccnc21` (centres undefined): 2.89%; `CC(C)C(Sc1nnnn1-c1ccccc1)C(=O)NCc1cccnc1` (centres undefined): -2.05%.
Turning to `CN1CCN(S(C)(=O)=O)c2cc(F)ccc21`, the cytotoxicity at 70.5 h is -14.8%.
In the case of `CCN1CCN(C(C)CNC(=O)Nc2nnc(C(C)C)s2)CC1` (centres undefined), the cytotoxicity at 70.5 h was -12.4%.
Next, `COCC(=O)N1CCCC1c1nccnc1Nc1nc(C)cs1` (centres undefined): -7.14%; `O=C(C1CC1)N(Cc1ccc2cc[nH]c2c1)C1CC1`: -22.5%.
Consider `CN1CCCC1c1cncc(C(=O)NCc2ccccc2)n1` (centres undefined), for which the cytotoxicity at 70.5 h is -2.59%.
`COCCCN1C(=O)CC[C@H]2CN(Cc3ncc[nH]3)CC[C@H]21`: the cytotoxicity at 70.5 h is 8.43%.
For `Cc1cc(-n2nc(C)nc2-c2cn(CCN)nn2)ccn1`, the cytotoxicity at 70.5 h was -6.15%.
The value for `CCCc1noc(C2CC(=O)N(CCN(C)C)C2)n1` (centres undefined) was -18.6%.
Next, `CCOC(=O)c1coc(N2CCC(C(C)N3CCCC3)CC2)n1` (centres undefined): -1.58%.
Next, `CN(C)c1ccc(CNc2cncc(-n3cccn3)n2)cc1`: -4.47%.
Regarding `O=C(Cn1nc2c(cc1=O)CSCC2)N[C@@H](Cc1ccccc1)C(=O)O`, the cytotoxicity at 70.5 h is -5.32%.
The value for `CN1CCC/C1=N\S(=O)(=O)c1ccc(NC(=O)c2ccc(Cl)s2)cc1` was -18.3%.
The value for `O=C(NCc1nnc2n1CCCC2)N1CCc2sccc2C1` was -4.27%.
Next, `Cc1nc(C)n(CC2CCCN(Cc3nnc(C(C)(C)C)o3)C2)n1` (centres undefined): -0.371%.
In the case of `C[C@@H]1CN(C(=O)c2cc(COc3ccc4c(c3)OCO4)[nH]n2)C[C@H](C)O1`, the cytotoxicity at 70.5 h was -3.48%.
The value for `Fc1cccnc1CN1CCCCC1c1ccn2ccnc2n1` (centres undefined) was 6.23%.
